The results in this text go back to patent US5034419A, “N-cycloalkylalkylamines, process for their preparation, their use as medicament and their synthesis intermediates” (L'Oreal, priority 1988, dated 1991).

One test has as its target T1, kappa receptors (Cavia porcellus, UniProt P41144).
T1 construct: from tissue
In words: in vitro affinity for kappa receptors. As to conditions: Table 3; read-out: kappa rec. IC50. The test is classed as binding. The protocol: (§1) The "in vitro" study of the affinity of the compounds according to the invention for the three opium receptors is carried out in accordance with the technique described by F. Roman and coll. in J. Pharm. Pharmacol. 1987, 39, p. 404-407 and the study of the affinity for PCP receptors is carried out in accordance with the technique described by Vignon J. and coll. in "Brain Res." 1983; 280, p. 194-7 and 1986; 378, p. 133-41.
(§2) The results shown in table 3 are, for each receptor studied, expressed in IC50, which are the nanomolar concentrations of the dissolved products which are capable of inhibiting 50% of the bonds between the specific radioactive ligand to the receptor under consideration.

Test [1] is described as follows: inhibition of gastro-duodenal ulcers caused by cysteamine. The test is classed as in vivo, Wistar female rats. The note with it: Rattus norvegicus; cysteamine hydrochloride 400 mg/kg s.c.; products orally or subcutaneously; read-out: ED50 - ulceration scores. How it is done:
This activity is set in relation to the capacity of the products to cause an increase in the alkaline secretion in the duodenum in anaesthetized animals.
In this test, groups of 6 Wistar female rats with an average weight of 200 g receive a subcutaneous injection of cysteamine hydrochloride in an amount of 400 mg/kg. The products under investigation are administered orally or subcutaneously 1 h or, respectively, 30 minutes before the ulcerogenic agent.
Ten hours thereafter, the rats are sacrificed by elongation and their stomach and duodenum are removed, rinsed with physiological solution and mounted on a card. The presence of ulcers in the antro-pyloric-duodenal zone is examined and their area, expressed in mm^2, is evaluated by multiplying the two main perpendicular axis of the lesion. Statistical analysis of the results is performed with the aid of the Student test for the ulcerated areas in comparison with a control group receiving only excipient.
The results presented in table 5 are expressed in ED50 of ulceration scores, which are the effective doses, expressed in mg/kg product, which cause inhibition of 50% of the ulcerations caused by cysteamine.

Another test deals with T2, sigma receptors (Cavia porcellus, UniProt Q60492).
T2 construct: sigma receptors of the cerebral membranes of the guinea-pig used in this study; from tissue; host or cells: guinea-pig cerebral membranes
T2 sequence (Q60492 whole entry): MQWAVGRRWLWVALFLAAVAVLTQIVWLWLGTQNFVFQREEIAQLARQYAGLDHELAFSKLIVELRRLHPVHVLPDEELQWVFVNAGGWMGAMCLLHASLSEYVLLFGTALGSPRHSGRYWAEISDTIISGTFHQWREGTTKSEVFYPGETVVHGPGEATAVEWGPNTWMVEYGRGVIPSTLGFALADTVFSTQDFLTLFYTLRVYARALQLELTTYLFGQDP
Description: in vitro affinity for sigma receptors, competition with (+)[3H]SKF10,047. The class given is binding, guinea-pig (cerebral membranes). The protocol:
The test is carried out by incubating solutions of suitable concentrations of the products with standard samples of membranes and determining, after filtration, the residual radioactivity of the solution.

A further test concerns the target mu receptors. In words: in vitro affinity for mu receptors. The test is classed as binding. The note with it: Table 3; read-out: mu rec. IC50. How it is done: as §1, §2
A further test addresses T3, delta receptors (Cavia porcellus, UniProt A0A286XTF2).
T3 construct: from tissue
Description: in vitro affinity for delta receptors. The test is classed as binding. As to conditions: Table 3; read-out: delta rec. IC50. How it is done:
as §1, §2

Test [2] in a line: protection from convulsions induced by picrotoxin in mice. As to conditions: for i.p.: % prot. (inhibition of convulsions induced by picrotoxin): 50 mg/kg i.p., picrotoxin 24 mg/kg i.p. 30 minutes later; for i.p.: % prot. (inhibition of convulsions induced by picrotoxin) / p.o.: % prot. (inhibition of convulsions induced by picrotoxin): * p<0.05, ** p<0.01, *** p<0.001; for p.o.: % prot. (inhibition of convulsions induced by picrotoxin): 100 mg/kg p.o., picrotoxin 24 mg/kg i.p. 60 minutes later; for ED50: Mus musculus. The class given is in vivo, "Swiss" male mice. The protocol: b) The psychotropic properties of the compounds were determined by the protection from convulsions induced by picrotoxin in mice, which was realized in accordance with a method derived from that of Krall and coll., "Epilepsia", 1978, 19, p. 409-428.
The administration of picrotoxin to animals causes a convulsive attack characterized by a myoclonic extension syndrome followed by extension of the limbs leading to death of the animals. Certain substances, in particular those which act on the GABA/benzodiazepine/Cl-ionophor complex, provide protection of the animals from these convulsive attacks.
In practice, the study is carried out on groups of 10 "Swiss" male mice weighing about 20 g, to which the product under investigation is administered in aqueous solution either intraperitoneally (i.p.) or orally (p.o.).
An intraperitoneal injection of a solution of picrotoxin in an amount of 24 mg/kg in a volume of 0.2 ml per animal is then performed, either 30 minutes after intraperitoneal administration of the product or 60 minutes after oral administration of the product, the dose of the product injected in this way causing a clonic attack which leads to death of the untreated animals. Under the conditions of the test, suppression of the tonic extension phase is found in the animals treated.
The results are expressed:
either as the percentage of animals protected from this phase under the action of 50 mg/kg compound under investigation administered i.p. or 100 mg/kg p.o.,
or in the ED50 for each of these groups, which is the effective dose of the compound under investigation expressed in mg/kg which protects 50% of animals from this extension phase, the significance value of the results generally being indicated in the following manner: […]

The target in a further test is PCP receptors. Description: in vitro affinity for phencyclidine (PCP) receptors. The class given is binding. The note with it: Table 3; read-out: PCP rec. IC50. How it is done:
as §1, §2

A short description of test [3]: antagonism of amnesia caused by scopolamine, passive avoidance test. The class given is in vivo, mice. The protocol:
The animal is introduced into the illuminated compartment, and when it moves to the dark compartment it receives an electric current (0.35 mA) through the base until it returns to the illuminated compartment, from where it is then removed.
After 24 hours, the operation is repeated. The mouse is replaced in the apparatus and it avoids entering into the dark compartment. The time which elapses before passage into this compartment is recorded; under the conditions of the experiment, the efficacy of the compounds under investigation in antagonizing the amnesic effect of scopolamine, which is administered intraperitoneally in an amount of 1 mg/kg 30 minutes before the animal is first introduced into the apparatus, can be evaluated.
In control mice which have received only scopolamine, the time elapsed before passage after 24 hours is remarkably lower than that observed in the untreated animals.
The study of the products according to the invention by this method is performed on groups of 18 mice and the products are administered orally on the first day in an amount of 0.25 mg/kg 30 minutes before administration of scopolamine i.p.

Setting [4] is: Table 2, (+)[3H]SKF10,047, guinea-pig cerebral membranes, read-out: IC50 (bonding affinity to sigma receptors).
Setting [5] is: Table 3, read-out: sigma rec. IC50.
Where [6] appears, read: po, 1 h, read-out: p.o.: ED50 (inhibition of convulsions induced by picrotoxin).

pIC50: −log10 of the molar value. Counter-ions that a name gives are not always drawn. Like-named read-outs stand apart in the source and are kept apart here. Bounds are passed on as bounds.

T1 sequence (P41144 whole entry): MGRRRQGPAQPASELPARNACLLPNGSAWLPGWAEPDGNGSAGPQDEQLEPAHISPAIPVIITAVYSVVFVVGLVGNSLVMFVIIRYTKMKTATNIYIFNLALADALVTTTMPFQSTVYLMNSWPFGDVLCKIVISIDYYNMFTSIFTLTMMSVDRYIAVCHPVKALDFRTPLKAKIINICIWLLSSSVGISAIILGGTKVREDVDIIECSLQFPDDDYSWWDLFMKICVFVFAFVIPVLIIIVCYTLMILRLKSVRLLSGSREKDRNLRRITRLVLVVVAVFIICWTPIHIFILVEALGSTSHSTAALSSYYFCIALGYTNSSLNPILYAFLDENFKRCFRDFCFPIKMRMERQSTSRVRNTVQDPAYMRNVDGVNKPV
T3 sequence (A0A286XTF2 1-366): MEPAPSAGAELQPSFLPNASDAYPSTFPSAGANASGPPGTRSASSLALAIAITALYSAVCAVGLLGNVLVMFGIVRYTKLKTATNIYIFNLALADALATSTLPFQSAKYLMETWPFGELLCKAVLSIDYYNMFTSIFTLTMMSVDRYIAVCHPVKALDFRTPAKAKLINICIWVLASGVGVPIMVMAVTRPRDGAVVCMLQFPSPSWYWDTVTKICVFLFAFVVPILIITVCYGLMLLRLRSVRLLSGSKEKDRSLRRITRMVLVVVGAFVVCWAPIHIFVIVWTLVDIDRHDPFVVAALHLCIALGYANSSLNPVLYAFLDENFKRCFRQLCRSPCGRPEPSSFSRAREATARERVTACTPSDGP

Regarding `CCC(C[C@@H]1C[C@H]1c1ccccc1)(c1cccs1)N(C)CC1CC1` (relative stereo) [Example 24, trans-N-Cyclopropylmethyl-α-ethyl-N-methyl-α-(2-phenyl-1-cyclopropylmethyl)-2-thiophenemethylamine], the pIC50 on kappa receptors is 5.04; on sigma receptors (setting [4]), 7.54; on mu receptors, 5.52; on delta receptors, 4.24. In test [1], the ED50 was 45.7 mg/kg. Further, the “i.p.: % prot. (inhibition of convulsions induced by picrotoxin)” value in test [2] is reported as 50%. Also, the “p.o.: % prot. (inhibition of convulsions induced by picrotoxin)” value in test [2] was found to be 50%.
On to `CCC(CC=Cc1ccccc1)(NC[C@@H]1C[C@H]1c1ccccc1)c1ccccc1` (relative stereo) [Example 3, α-Cinnamyl-α-ethyl-N-(trans-2-phenyl-cyclopropyl)methyl-benzylamine], for which, at sigma receptors (setting [4]), the pIC50 is 6.43.
As to `CC(C)C(CC=Cc1ccccc1)(c1ccccc1)N(C)CC1CC1` (stereo not drawn) [Example 14, α-Cinnamyl-N-cyclopropylmethyl-α-isopropyl-N-methyl-benzylamine], the pIC50 on kappa receptors was 4.12; on sigma receptors (setting [5]) it was 6.17; at mu receptors, 4.47; at PCP receptors it was 4.85; at delta receptors it was less than 4.00.
In the case of `CCC(C[C@@H]1C[C@H]1c1ccccc1)(c1ccco1)N(C)CC1CC1` (relative stereo) [Example 23, trans-N-Cyclopropylmethyl-α-ethyl-N-methyl-α-(2-phenyl-1-cyclopropylmethyl)-2-furfurylamine], the “i.p.: % prot. (inhibition of convulsions induced by picrotoxin)” value in test [2] was 50%.
For the compound `CCC(CC=Cc1ccccc1)(c1ccccc1)N(C)CC1CC1` (single isomer, unassigned) [Example 11, (-)-α-Cinnamyl-N-cyclopropyl-methyl-α-ethyl-N-methyl-benzylamine hydrochloride], the pIC50 was 5.29 at kappa receptors; 6.99 on sigma receptors (IC50 (bonding affinity to sigma receptors), Table 2, (+)[3H]SKF10,047, guinea-pig cerebral membranes); 6.68 at sigma receptors (sigma rec. IC50, Table 3); 4.38 on delta receptors. Besides, the “% antagonism of the amnesia” value in test [3] (0.25 mg/kg orally, scopolamine 1 mg/kg i.p. 30 minutes later, latency after 24 hours, hydrochloride) is 38%. Besides, the “i.p.: % prot. (inhibition of convulsions induced by picrotoxin)” value in test [2] (hydrochloride) amounted to 70%.
In the case of `CCC(CC=Cc1ccccc1)(NCC1(C)CC1)c1ccccc1` (stereo not drawn) [Example 2, α-Cinnamyl-α-ethyl-N-(1-methylcyclopropyl)-methyl-benzylamine], the “p.o.: % prot. (inhibition of convulsions induced by picrotoxin)” value in test [2] is recorded as 90%.
For the compound `CCC(CC=Cc1ccccc1)(c1ccccc1)N(C)CCC1CC1` (stereo not drawn) [Example 8, α-Cinnamyl-N-cyclopropylethyl-α-ethyl-N-methyl-benzylamine], the pIC50 on kappa receptors is 5.82; at sigma receptors (setting [4]), 7.68; at mu receptors, 5.69; on PCP receptors, 4.59; at delta receptors, 5.12. Further, in test [2] (setting [6]), the ED50 came out at 53.6 mg/kg.
Consider `CCC(C[C@@H]1C[C@H]1c1ccccc1)(c1ccsc1)N(C)CC1CC1` (relative stereo) [Example 25, trans-N-Cyclopropylmethyl-α-ethyl-N-methyl-α-(2-phenyl-1-cyclopropylmethyl)-3-thiophenemethylamine], for which, in test [2], the “i.p.: % prot. (inhibition of convulsions induced by picrotoxin)” value was 50% and the “p.o.: % prot. (inhibition of convulsions induced by picrotoxin)” value stood at 50%.
For the compound `CCC(CC=Cc1ccc(Cl)c(Cl)c1)(c1ccc(Cl)cc1)N(C)CC1CC1` (stereo not drawn) [Example 16, α-(3',4'-Dichloro)cinnamyl-N-cyclopropyl-methyl-α-ethyl-N-methyl-p-chlorobenzylamine], the “p.o.: % prot. (inhibition of convulsions induced by picrotoxin)” value in test [2] is 60%.
Turning to `NC(=O)CN1CCCC1=O` [piracetam, reference compound], the “% antagonism of the amnesia” value in test [3] (2048 mg/kg p.o.) is recorded as 109%; in test [3] (2048 mg/kg p.o., listed as piracetam), “about 100%”.
For `CN(CC1CC1)C(C)(CC=Cc1ccccc1)c1ccccc1` (stereo not drawn) [Example 13, α-Cinnamyl-N-cyclopropylmethyl-N-α-dimethyl-benzylamine], the pIC50 is 5.06 on kappa receptors; 6.47 on sigma receptors (setting [5]); 4.99 at mu receptors; 4.98 at PCP receptors; 5.03 at delta receptors. The ED50 in test [2] (ip, 0.5 h, read-out: i.p.: ED50 (inhibition of convulsions induced by picrotoxin)) turned out to be 32.5 mg/kg; in test [2] (setting [6]) it was 64.4 mg/kg.
On to `CCC(CC=Cc1ccccc1)(c1ccco1)N(C)CC1CC1` (stereo not drawn) [Example 20, α-Cinnamyl-N-cyclopropylmethyl-α-ethyl-N-methyl-2-furfurylamine], for which, in test [2], the “p.o.: % prot. (inhibition of convulsions induced by picrotoxin)” value was found to be 60%.
With `CCC(CC=Cc1ccccc1)(c1ccccc1)N(C)C[C@@H]1C[C@H]1c1ccccc1` (relative stereo) [Example 6, α-Cinnamyl-α-ethyl-N-methyl-N-(trans-2-phenyl-cyclopropyl)-methyl-benzylamine], on sigma receptors (setting [4]), the pIC50 was 6.61.
